Results published in ChEMBL document CHEMBL1123818, “Synthesis and biological activity of 5-(2,2-difluorovinyl)-2'-deoxyuridine” (1987).
In brackets after ≈: the same amount, converted by molar mass.

Assays:
[1] = system: Human alphaherpesvirus 1; assay: Compound was tested for antiviral activity against herpes simplex virus (thymidine kinase deficient herpes simplex virus( HSV-1 (B2006) in primary rabbit kidney cells; type: functional, Oryctolagus cuniculus
[2] = Compound was tested for antiviral activity against herpes simplex virus (HSV-1-McIntyre) strain in primary rabbit kidney cells; type: functional; conditions: Oryctolagus cuniculus
[3] = system: FM3A; assay: Compound was tested for antitumor activity against FM3A/0 mammary carcinoma cells; type: functional; conditions: Mus musculus
[4] = organism: Oryctolagus cuniculus; assay: Compound was tested for antiviral activity against Vaccinia virus in primary rabbit kidney cells; type: functional
[5] = system: Raji; assay: Compound was tested for antitumor activity against thymidine kinase deficient human B-lymphoblast […] cells; type: functional
[6] = Compound was tested for antiviral activity against herpes simplex virus( HSV-1-KOS) strain in primary rabbit kidney cells; type: functional; conditions: Oryctolagus cuniculus
[7] = Compound was tested for antiviral activity against […] Vassicular stomatitis in primary rabbit kidney cells; type: functional; conditions: Oryctolagus cuniculus
[8] = Compound was tested for antiviral activity against herpes simplex virus( HSV-1-F) strain in primary rabbit kidney cells; type: functional; conditions: Oryctolagus cuniculus
[9] = system: FM3A; assay: Compound was tested for antitumor activity against FM3A/TK- cells; type: functional; conditions: Mus musculus
[10] = system: Raji; assay: Compound was tested for antitumor activity against human B-lymphoblast Raji/0 cells; type: functional
[11] = Compound was tested for antitumor activity against HSV-1 TK gene transformed TK deficient FM3A cells; type: functional; conditions: Mus musculus
[12] = Compound was tested for antiviral activity against herpes simplex virus( HSV-2-lyons) strain in primary rabbit kidney cells; type: functional; conditions: Oryctolagus cuniculus
[13] = Compound was tested for antiviral activity against herpes simplex virus( HSV-2-G) strain in primary rabbit kidney cells; type: functional; conditions: Oryctolagus cuniculus
[14] = system: L1210; assay: Compound was tested for antitumor activity against L1210 cells; type: functional; conditions: Mus musculus
[15] = system: MOLT-4F; assay: Compound was tested for antitumor activity against human T-lymphoblast Molt/4F cells; type: functional
[16] = Compound was tested for antiviral activity against herpes simplex virus( HSV-2-196 strain in primary rabbit kidney cells; type: functional; conditions: Oryctolagus cuniculus
[17] = Compound was tested for antiviral activity against herpes simplex virus( HSV-1-McIntyre) strain in primary rabbit kidney cells; type: functional; conditions: Oryctolagus cuniculus
[18] = system: Human alphaherpesvirus 1; assay: (§1) Compound was tested for antiviral activity against herpes simplex virus (thymidine kinase deficient herpes simplex virus ( HSV-1 (B2006) in primary rabbit kidney cells; type: functional, Oryctolagus cuniculus
[19] = system: Human alphaherpesvirus 1; assay: as §1; type: functional

SMILES | MIC50 [1] | MIC50 [2] | MIC50 [3] | MIC50 [4] | MIC50 [5] | MIC50 [6] | MIC50 [7] | MIC50 [8] | MIC50 [9] | MIC50 [10] | MIC50 [11] | MIC50 [12] | MIC50 [13] | MIC50 [14] | MIC50 [15] | MIC50 [16] | MIC50 [17] | MIC50 [18] | MIC50 [19]
Oc1ncc(C=C(F)F)c(O)n1 | > 200 µg/mL | > 200 µg/mL | > 100 µg/mL | > 200 µg/mL | > 100 µg/mL | > 200 µg/mL | > 200 µg/mL | > 200 µg/mL | > 100 µg/mL | > 100 µg/mL | > 100 µg/mL | > 200 µg/mL | > 200 µg/mL | > 100 µg/mL | > 100 µg/mL | > 200 µg/mL |  |  | 
O=c1[nH]c(=O)n([C@H]2C[C@H](O)[C@@H](CO)O2)cc1C=C(Br)Br |  |  | > 100 µg/mL | 100 µg/mL (≈ 243 µM) | > 100 µg/mL | 20 µg/mL (≈ 48.5 µM) | > 400 µg/mL | 70 µg/mL (≈ 170 µM) | > 100 µg/mL | > 100 µg/mL | 7 µg/mL (≈ 17 µM) | 200 µg/mL (≈ 485 µM) | 200 µg/mL (≈ 485 µM) | > 100 µg/mL | > 100 µg/mL | 150 µg/mL (≈ 364 µM) | 20 µg/mL (≈ 48.5 µM) | > 150 µg/mL | 
O=c1[nH]c(=O)n([C@H]2C[C@H](O)[C@@H](CO)O2)cc1/C=C/Br [BRIVUDINE] |  |  | 13 µg/mL (≈ 39 µM) | 20 µg/mL (≈ 60 µM) | 78 µg/mL (≈ 234 µM) | 0.02 µg/mL (≈ 0.06 µM) | > 200 µg/mL | 0.02 µg/mL (≈ 0.06 µM) | 0.4 µg/mL (≈ 1.2 µM) | 29 µg/mL (≈ 87.1 µM) | 0.0004 µg/mL (≈ 0.0012 µM) | 7 µg/mL (≈ 21 µM) | 2 µg/mL (≈ 6 µM) | 31 µg/mL (≈ 93.1 µM) | > 100 µg/mL | 7 µg/mL (≈ 21 µM) | 0.02 µg/mL (≈ 0.06 µM) | > 200 µg/mL | 
O=c1[nH]c(=O)n([C@H]2C[C@H](O)[C@@H](CO)O2)cc1C=C(F)F |  |  | 55 µg/mL (≈ 190 µM) | 15 µg/mL (≈ 51.7 µM) | > 100 µg/mL | 0.2 µg/mL (≈ 0.689 µM) | > 200 µg/mL | 0.3 µg/mL (≈ 1.03 µM) | > 100 µg/mL | 33 µg/mL (≈ 114 µM) | 0.25 µg/mL (≈ 0.861 µM) | 3 µg/mL (≈ 10.3 µM) | 6 µg/mL (≈ 20.7 µM) | 30 µg/mL (≈ 103 µM) | 42 µg/mL (≈ 145 µM) | 10 µg/mL (≈ 34.5 µM) | 0.3 µg/mL (≈ 1.03 µM) | > 200 µg/mL | 
O=c1[nH]c(=O)n([C@H]2C[C@H](O)[C@@H](CO)O2)cc1I [IDOXURIDINE] |  |  |  | 0.5 µg/mL (≈ 1.41 µM) |  | 0.15 µg/mL (≈ 0.424 µM) | > 200 µg/mL | 0.2 µg/mL (≈ 0.565 µM) |  |  |  | 1.5 µg/mL (≈ 4.24 µM) | 1.5 µg/mL (≈ 4.24 µM) |  |  | 3 µg/mL (≈ 8.47 µM) | 0.3 µg/mL (≈ 0.847 µM) | > 200 µg/mL | 
O=c1[nH]c(=O)n([C@@H]2C[C@H](O)[C@@H](CO)O2)cc1C=C(F)F |  |  | > 100 µg/mL |  | > 100 µg/mL | 20 µg/mL (≈ 68.9 µM) | > 200 µg/mL | 20 µg/mL (≈ 68.9 µM) | > 100 µg/mL | > 100 µg/mL | > 100 µg/mL | 70 µg/mL (≈ 241 µM) | 150 µg/mL (≈ 517 µM) | > 100 µg/mL | > 100 µg/mL | 100 µg/mL (≈ 345 µM) | 20 µg/mL (≈ 68.9 µM) |  | > 200 µg/mL
